Patent publication US8541588B2, “Sulfonamide derivatives” (Pfizer Limited, priority 2009, dated 2013)

Molecular target: T1, Nav1.7 (or SCN9A) channel; HEK cells stably transfected with hSCN9A (Homo sapiens, UniProt Q15858)
T1 construct: expressed in transfected cells
Experiment: Nav1.7 block, PatchXpress 7000 automated whole-cell voltage clamp, estimated IC50 (EIC50)
Type: cell-based
Settings: estimated IC50, PatchXpress platform

[1] = hSCN9A HEK cells, Examples 283-814
[2] = hSCN9A HEK cells, Examples 815-1040
[3] = hSCN9A HEK cells held at V1/2 of inactivation

T1 sequence (Q15858 whole entry): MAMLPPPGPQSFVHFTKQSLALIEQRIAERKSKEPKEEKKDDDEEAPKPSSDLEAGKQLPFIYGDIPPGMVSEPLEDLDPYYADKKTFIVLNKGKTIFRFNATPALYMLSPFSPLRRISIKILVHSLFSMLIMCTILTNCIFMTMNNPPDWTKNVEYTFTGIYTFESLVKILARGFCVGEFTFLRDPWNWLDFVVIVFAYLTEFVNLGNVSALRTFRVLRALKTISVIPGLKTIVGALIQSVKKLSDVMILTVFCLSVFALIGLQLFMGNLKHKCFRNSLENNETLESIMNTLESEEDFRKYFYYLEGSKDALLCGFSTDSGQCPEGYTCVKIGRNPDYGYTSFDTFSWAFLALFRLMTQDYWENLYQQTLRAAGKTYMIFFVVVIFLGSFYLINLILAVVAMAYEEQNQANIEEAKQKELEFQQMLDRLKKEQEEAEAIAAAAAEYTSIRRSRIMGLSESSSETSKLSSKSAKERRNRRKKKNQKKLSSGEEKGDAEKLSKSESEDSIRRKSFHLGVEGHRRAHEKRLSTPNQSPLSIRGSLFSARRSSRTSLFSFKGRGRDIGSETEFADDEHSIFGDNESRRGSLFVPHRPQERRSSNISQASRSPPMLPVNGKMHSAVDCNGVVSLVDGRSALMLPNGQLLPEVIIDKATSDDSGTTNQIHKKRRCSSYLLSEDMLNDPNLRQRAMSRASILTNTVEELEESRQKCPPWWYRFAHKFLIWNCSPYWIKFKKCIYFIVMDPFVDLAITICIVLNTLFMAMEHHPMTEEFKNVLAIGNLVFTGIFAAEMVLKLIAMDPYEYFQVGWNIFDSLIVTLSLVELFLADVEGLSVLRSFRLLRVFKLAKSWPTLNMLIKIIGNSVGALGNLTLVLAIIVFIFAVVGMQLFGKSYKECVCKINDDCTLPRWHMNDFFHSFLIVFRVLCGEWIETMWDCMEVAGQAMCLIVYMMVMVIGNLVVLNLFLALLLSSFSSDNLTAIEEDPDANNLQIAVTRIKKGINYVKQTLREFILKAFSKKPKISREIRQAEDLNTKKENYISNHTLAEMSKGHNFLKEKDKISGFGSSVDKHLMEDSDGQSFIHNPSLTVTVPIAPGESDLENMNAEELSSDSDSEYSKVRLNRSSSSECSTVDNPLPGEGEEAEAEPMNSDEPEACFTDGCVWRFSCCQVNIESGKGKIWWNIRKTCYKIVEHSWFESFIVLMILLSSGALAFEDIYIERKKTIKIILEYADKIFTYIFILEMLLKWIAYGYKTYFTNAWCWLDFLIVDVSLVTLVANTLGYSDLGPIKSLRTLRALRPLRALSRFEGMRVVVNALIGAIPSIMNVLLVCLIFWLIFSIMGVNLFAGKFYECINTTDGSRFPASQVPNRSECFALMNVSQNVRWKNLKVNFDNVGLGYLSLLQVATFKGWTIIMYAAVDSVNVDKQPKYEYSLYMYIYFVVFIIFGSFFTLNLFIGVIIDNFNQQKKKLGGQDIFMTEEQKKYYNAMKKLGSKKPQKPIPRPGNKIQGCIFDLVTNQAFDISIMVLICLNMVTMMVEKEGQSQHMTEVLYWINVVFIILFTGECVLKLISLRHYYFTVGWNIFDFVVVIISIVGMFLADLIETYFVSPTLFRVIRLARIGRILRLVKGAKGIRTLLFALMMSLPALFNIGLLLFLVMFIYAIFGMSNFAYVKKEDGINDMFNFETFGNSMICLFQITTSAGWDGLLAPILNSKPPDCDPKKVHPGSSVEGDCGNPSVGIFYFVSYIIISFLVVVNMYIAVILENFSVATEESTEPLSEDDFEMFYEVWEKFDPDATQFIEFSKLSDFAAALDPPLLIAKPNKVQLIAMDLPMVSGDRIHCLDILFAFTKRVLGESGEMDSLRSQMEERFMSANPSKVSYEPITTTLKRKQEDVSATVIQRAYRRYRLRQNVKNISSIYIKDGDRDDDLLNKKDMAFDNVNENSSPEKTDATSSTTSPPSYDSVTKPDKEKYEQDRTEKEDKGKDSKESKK

IC50 [1]	IC50 [2]	Compound	further results
2.5 µM	–	Cn1ccc(-c2ccc(F)cc2Oc2ccc(S(=O)(=O)Nc3nccs3)cc2C#N)n1 [Example 494, 3-cyano-4-[5-fluoro-2-(1-methyl-1H-pyrazol-3-yl)phenoxy]-N-1,3-thiazol-2-ylbenzenesulfonamide]	–
–	0.34 µM	N#Cc1cc(S(=O)(=O)Nc2ncns2)ccc1Oc1ccc(Cl)cc1-c1cc(N2CCOCC2)ncn1 [Example 896, 4-[4-chloro-2-(6-morpholin-4-ylpyrimidin-4-yl)phenoxy]-3-cyano-N-1,2,4-thiadiazol-5-ylbenzenesulfonamide]	–
0.3 µM	–	N#Cc1cc(S(=O)(=O)Nc2nccs2)ccc1Oc1cccc(-n2nc(C(F)F)cc2CO)c1 [Example 390, 3-cyano-4-{3-[3-(difluoromethyl)-5-(hydroxymethyl)-1H-pyrazol-1-yl]phenoxy}-N-1,3-thiazol-2-ylbenzenesulfonamide]	–
0.08 µM	–	O=S(=O)(Nc1nccs1)c1ccc(Oc2ccc(OC(F)(F)F)cc2-c2cn[nH]c2)c(F)c1 [Example 687, 3-fluoro-4-[2-(1H-pyrazol-4-yl)-4-(trifluoromethoxy)phenoxy]-N-1,3-thiazol-2-ylbenzenesulfonamide]	–
>1 µM	–	N#Cc1ccnc(NS(=O)(=O)c2ccc(Oc3ccccc3-c3ccccc3)c(C#N)c2)c1 [Example 422, 4-(biphenyl-2-yloxy)-3-cyano-N-(4-cyanopyridin-2-yl)benzenesulfonamide]	–
–	0.0015 µM	CCN1CC(n2nccc2-c2cc(Cl)ccc2Oc2cc(F)c(S(=O)(=O)Nc3ncns3)cc2F)C1 [Example 975, 4-{4-chloro-2-[1-(1-ethylazetidin-3-yl)-1H-pyrazol-5-yl]phenoxy}-2,5-difluoro-N-1,2,4-thiadiazol-5-ylbenzenesulfonamide]	–
0.056 µM	–	Cn1nc(C(F)(F)F)cc1-c1ccc(Oc2ccc(S(=O)(=O)Nc3ncc(F)s3)cc2C#N)c(Cl)c1 [Example 720, 4-{2-chloro-4-[1-methyl-3-(trifluoromethyl)-1H-pyrazol-5-yl]phenoxy}-3-cyano-N-(5-fluoro-1,3-thiazol-2-yl)benzenesulfonamide]	–
–	3.3 µM	N#Cc1cc(S(=O)(=O)Nc2ncns2)ccc1Oc1ccc(Cl)cc1-c1ccc(C(=O)O)cc1 [Example 999, 5′-chloro-2′-{2-cyano-4-[(1,2,4-thiadiazol-5-ylamino)sulfonyl]phenoxy}biphenyl-4-carboxylic acid]	–
–	0.26 µM	Cn1nccc1-c1cc(Cl)ccc1Oc1ccc(S(=O)(=O)Nc2ncccn2)cc1C#N [Example 881, 4-[4-chloro-2-(1-methyl-1H-pyrazol-5-yl)phenoxy]-3-cyano-N-pyrimidin-2-ylbenzenesulfonamide]	–
0.0038 µM	–	O=S(=O)(Nc1ncns1)c1cc(Cl)c(Oc2ccc(F)cc2-c2ccnn2C2CNC2)cc1F [Example 810, 4-[2-(1-azetidin-3-yl-1H-pyrazol-5-yl)-4-fluorophenoxy]-5-chloro-2-fluoro-N-1,2,4-thiadiazol-5-ylbenzenesulfonamide]	–
0.0052 µM	–	O=S(=O)(Nc1ncns1)c1cc(F)c(Oc2cc(Cl)c(F)cc2-c2ccn[nH]2)cc1F [Example 753, 4-[5-chloro-4-fluoro-2-(1H-pyrazol-5-yl)phenoxy]-2,5-difluoro-N-1,2,4-thiadiazol-5-ylbenzenesulfonamide]	–
0.091 µM	–	Cn1nccc1-c1cc(F)ccc1Oc1ccc(S(=O)(=O)Nc2ncc(F)s2)cc1C#N [Example 386, 3-cyano-4-[4-fluoro-2-(1-methyl-1H-pyrazol-5-yl)phenoxy]-N-(5-fluoro-1,3-thiazol-2-yl)benzenesulfonamide]	–
0.55 µM	–	N#Cc1cc(S(=O)(=O)Nc2nccs2)ccc1Oc1ccc(Cl)cc1-n1ccnn1 [Example 322, 4-[4-chloro-2-(1H-1,2,3-triazol-1-yl)phenoxy]-3-cyano-N-1,3-thiazol-2-ylbenzenesulfonamide]	–
–	–	N#Cc1cc(S(=O)(=O)Nc2ncc(Cl)s2)ccc1Oc1cc(C(F)(F)F)nn1-c1ccccc1 [Example 141, N-(5-chloro-1,3-thiazol-2-yl)-3-cyano-4-{[1-phenyl-3-(trifluoromethyl)-1H-pyrazol-5-yl]oxy}benzenesulfonamide]	IC50 [3]: 1.23 µM
–	0.076 µM	Cn1nccc1-c1cc(Cl)ccc1Oc1ccc(S(=O)(=O)Nc2ncccn2)cc1Cl [Example 955, 3-chloro-4-[4-chloro-2-(1-methyl-1H-pyrazol-5-yl)phenoxy]-N-pyrimidin-2-ylbenzenesulfonamide]	–
–	0.0039 µM	N#Cc1cc(S(=O)(=O)Nc2cscn2)ccc1Oc1ccc(Cl)cc1-c1ccnc(N2CCNCC2)c1 [Example 834, 4-[4-chloro-2-(2-piperazin-1-ylpyridin-4-yl)phenoxy]-3-cyano-N-1,3-thiazol-4-ylbenzenesulfonamide]	–
0.96 µM	–	Cn1nccc1-c1cc(C#N)ccc1Oc1cc(F)c(S(=O)(=O)Nc2ncc(Cl)s2)cc1F [Example 441, N-(5-chloro-1,3-thiazol-2-yl)-4-[4-cyano-2-(1-methyl-1H-pyrazol-5-yl)phenoxy]-2,5-difluorobenzenesulfonamide]	–
0.23 µM	–	CCn1nc(C(F)(F)F)cc1-c1cccc(Oc2ccc(S(=O)(=O)Nc3ncc(F)s3)cc2C#N)c1 [Example 479, 3-cyano-4-{3-[1-ethyl-3-(trifluoromethyl)-1H-pyrazol-5-yl]phenoxy}-N-(5-fluoro-1,3-thiazol-2-yl)benzenesulfonamide]	–
–	0.025 µM	O=S(=O)(Nc1nncs1)c1cc(Cl)c(Oc2cc(OC(F)(F)F)c(F)cc2-c2ccnnc2)cc1F [Example 965, 5-chloro-2-fluoro-4-[4-fluoro-2-pyridazin-4-yl-5-(trifluoromethoxy)phenoxy]-N-1,3,4-thiadiazol-2-ylbenzenesulfonamide]	–
–	–	O=S(=O)(Nc1nccs1)c1ccc(Oc2nc(Cc3ccc(Cl)cc3)cs2)cc1F [Example 214, 4-[4-(4-chloro-benzyl)-thiazol-2-yloxy]-2-fluoro-N-thiazol-2-yl-benzenesulfonamide]	IC50 [3]: 2.41 µM
0.40 µM	–	CCn1nc(C(F)(F)F)cc1-c1ccc(Oc2ncc(S(=O)(=O)Nc3nccs3)cc2C#N)cc1 [Example 740, 5-cyano-6-{4-[1-ethyl-3-(trifluoromethyl)-1H-pyrazol-5-yl]phenoxy}-N-1,3-thiazol-2-ylpyridine-3-sulfonamide]	–
–	–	O=S(=O)(Nc1nccs1)c1ccc(Oc2ccc(Cl)cc2-c2ccnn2-c2ccccc2)c(F)c1 [Example 227, 4-(4-chloro-2-(1-phenyl-1H-pyrazol-5-yl)phenoxy)-3-fluoro-N-(thiazol-2-yl)benzenesulfonamide]	IC50 [3]: 0.03 µM
0.9 µM	–	N#Cc1cc(S(=O)(=O)Nc2nccs2)ccc1Oc1ccc(Cl)cc1-c1cnccn1 [Example 652, 4-(4-chloro-2-pyrazin-2-ylphenoxy)-3-cyano-N-1,3-thiazol-2-ylbenzenesulfonamide]	–
0.022 µM	–	O=S(=O)(Nc1ncns1)c1cc(F)c(Oc2ccc(F)cc2-c2ccn[nH]2)cc1F [Example 781, 2,5-difluoro-4-[4-fluoro-2-(1H-pyrazol-5-yl)phenoxy]-N-1,2,4-thiadiazol-5-ylbenzenesulfonamide]	–
–	0.025 µM	N#Cc1cc(S(=O)(=O)Nc2ncns2)ccc1Oc1cc(Cl)c(F)cc1-c1ccnnc1 [Example 938, 4-(5-chloro-4-fluoro-2-pyridazin-4-ylphenoxy)-3-cyano-N-1,2,4-thiadiazol-5-ylbenzenesulfonamide]	–
